Here are results for 25 compounds from patent US10239882B2, “Substituted 5-methyl-[1,2,4]triazolo[1,5-a]pyrimidin-2-amine compounds as PDE2 inhibitors” (DART NEUROSCIENCE (CAYMAN) LTD., priority 2014, dated 2019).

Structures are written as SMILES. pIC50: −log10 of the molar value.

The target of this experiment is FLAG-tagged PDE2A1 (amino acids 2-941) (Homo sapiens (Human), UniProt O00408). As to the kind of experiment: IMAP TR-FRET PDE2A enzymatic assay. It counts as biochemical. The following applies: 200 nM FAM-cAMP substrate, 11-point half-log dose-response; for pIC50: read-out: PDE2 (PIC50). From the text: An IMAP TR-FRET-based phosphodiesterase assay was developed using the PDE2A isoform. IMAP technology is based on high-affinity binding of phosphate by immobilized metal (MIII) coordination complexes on nanoparticles. The IMAP “binding reagent” recognizes phosphate groups on AMP or GMP generated from cAMP or cGMP in a PDE reaction. Cyclic nucleotides that carry a phosphodiester bond and not a free phosphate are not recognized by the binding reagent. The time resolved fluorescence resonance energy transfer (TR-FRET) is afforded by a Terbium (Tb)-Donor pre-bound to the nanoparticles. FRET occurs when the fluorescent-labeled AMP or GMP product of a PDE reaction binds and comes into close proximity to the Tb-Donor complex. Due to the long lifetime of Tb fluorescence, detection can be run in time-resolved mode to reduce or eliminate interference from auto-fluorescent compounds.
The IMAP TR-FRET PDE2A assay was performed in 1536-well white plates. A total of 250 pg per well of FLAG-tagged PDE2A1 (amino acids 2-941) was dispensed in 2.5 μL IMAP assay buffer consisting of 10 mM Tris pH 7.2, 10 mM MgCl2, 1 mM DTT, and 0.1% fatty acid free BSA. 30 nL of compound was then added from 1 mM stocks in DMSO using a Kalypsys Pintool. Plates were incubated for 5 min at room temperature before dispensing 1.5 μL of 533 nM FAM-cAMP substrate for a final concentration of 200 nM. Following a brief centrifugation, plates were incubated for 30 min at room temperature. The assay was terminated by adding 5 μL IMAP binding reagent Tb complex to each well which was prepared according to manufacturer's recommendations (Molecular Devices). Plates were incubated an additional 90 minutes at room temperature and read on a Viewlux plate reader. All compounds were solvated at a concentration of 10 mM in DMSO and tested in 11-point half-log dose-response. Curve fitting and IC50 values were determined using a standard four parameter fit.
A general note: TR-FRET usually uses a lanthanide donor and a delayed reading to cut background.

FLAG-tagged PDE2A1 (amino acids 2-941), sequence (O00408 2-941): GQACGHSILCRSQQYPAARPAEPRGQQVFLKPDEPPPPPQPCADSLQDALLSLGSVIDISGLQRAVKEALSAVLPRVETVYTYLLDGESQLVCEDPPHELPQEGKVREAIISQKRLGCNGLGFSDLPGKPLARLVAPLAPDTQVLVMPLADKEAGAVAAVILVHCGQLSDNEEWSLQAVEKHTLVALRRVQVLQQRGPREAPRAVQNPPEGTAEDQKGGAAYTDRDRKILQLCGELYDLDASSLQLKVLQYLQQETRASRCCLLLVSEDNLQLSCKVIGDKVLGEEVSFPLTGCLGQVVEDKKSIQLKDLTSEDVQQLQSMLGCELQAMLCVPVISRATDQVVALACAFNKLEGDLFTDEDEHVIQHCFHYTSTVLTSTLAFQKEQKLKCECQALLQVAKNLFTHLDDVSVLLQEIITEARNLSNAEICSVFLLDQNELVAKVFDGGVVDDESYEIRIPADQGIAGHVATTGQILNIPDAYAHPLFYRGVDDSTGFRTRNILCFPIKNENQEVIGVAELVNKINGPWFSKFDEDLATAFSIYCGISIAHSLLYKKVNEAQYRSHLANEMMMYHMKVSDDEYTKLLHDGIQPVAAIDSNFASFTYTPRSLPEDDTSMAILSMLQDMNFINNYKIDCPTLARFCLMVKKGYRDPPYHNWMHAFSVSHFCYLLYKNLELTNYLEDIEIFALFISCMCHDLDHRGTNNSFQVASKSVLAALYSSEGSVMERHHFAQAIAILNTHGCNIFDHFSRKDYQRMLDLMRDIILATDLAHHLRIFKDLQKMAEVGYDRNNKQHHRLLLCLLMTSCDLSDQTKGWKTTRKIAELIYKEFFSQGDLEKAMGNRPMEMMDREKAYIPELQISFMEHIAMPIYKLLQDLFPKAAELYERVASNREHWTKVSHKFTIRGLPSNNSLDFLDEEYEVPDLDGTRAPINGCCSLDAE

In the case of `Cc1cc(C2CCOCC2)n2nc(NCc3ccnc4ccccc34)nc2n1` [Example 60, 5-Methyl-7-(oxan-4-yl)-N-(quinolin-4-ylmethyl)-[1,2,4]triazolo[1,5-a]pyrimidin-2-amine], the “PDE2 (PIC50)” value is greater than 7.

As to `Cc1cc(C2(C)CCOCC2)n2nc(NCc3cn(-c4ccccc4)nc3C)nc2n1` [Example 61, 5-Methyl-N-[(3-methyl-1-phenyl-1H-pyrazol-4-yl)methyl]-7-(4-methyloxan-4-yl)-[1,2,4]triazolo[1,5-a]pyrimidin-2-amine], the “PDE2 (PIC50)” value is given as greater than 7.

Turning to `Cc1cc(C2(C)CCOCC2)n2nc(NCc3cnn(-c4ccccc4)c3)nc2n1` [Example 62, 5-Methyl-7-(4-methyloxan-4-yl)-N-[(1-phenyl-1H-pyrazol-4-yl)methyl]-[1,2,4]triazolo[1,5-a]pyrimidin-2-amine], the “PDE2 (PIC50)” value was greater than 7.

With `Cc1cc(C2CC2)n2nc(NCc3cn(-c4ccccc4)nc3C)nc2n1` [Example 63, 7-Cyclopropyl-5-methyl-N-[(3-methyl-1-phenyl-1H-pyrazol-4-yl)methyl]-[1,2,4]triazolo[1,5-a]pyrimidin-2-amine], the pIC50 was 6.00 to 7.00.

As for `COc1ccc([C@@H](C)Nc2nc3nc(C)cc(C4CCOCC4)n3n2)cc1` [Example 64, N-[(1R)-1-(4-Methoxyphenyl)ethyl]-5-methyl-7-(oxan-4-yl)-[1,2,4]triazolo[1,5-a]pyrimidin-2-amine], the pIC50 was 6.00 to 7.00.

On to `Cc1cc(C2CCOCC2)n2nc(NCc3cn(CC(F)F)nc3C)nc2n1` [Example 65, N-{[1-(2,2-Difluoroethyl)-3-methyl-1H-pyrazol-4-yl]methyl}-5-methyl-7-(oxan-4-yl)-[1,2,4]triazolo[1,5-a]pyrimidin-2-amine], for which the pIC50 was 6.00 to 7.00.

For the compound `Cc1cc(C2CCOCC2)n2nc(NCc3cn(C(C)C)nc3C)nc2n1` [Example 66, 5-Methyl-N-{[3-methyl-1-(propan-2-yl)-1H-pyrazol-4-yl]methyl}-7-(oxan-4-yl)-[1,2,4]triazolo[1,5-a]pyrimidin-2-amine], the “PDE2 (PIC50)” value was greater than 7.

As to `Cc1cc(C2CCOCC2)n2nc(NCc3ccc(F)cc3F)nc2n1` [Example 68, N-[(2,4-Difluorophenyl)methyl]-5-methyl-7-(oxan-4-yl)-[1,2,4]triazolo[1,5-a]pyrimidin-2-amine], the pIC50 is 6.00 to 7.00.

For the compound `COc1ccc([C@H](C)Nc2nc3nc(C)cc(C4CCOCC4)n3n2)cc1` [Example 69, N-[(1S)-1-(4-Methoxyphenyl)ethyl]-5-methyl-7-(oxan-4-yl)-[1,2,4]triazolo[1,5-a]pyrimidin-2-amine], the pIC50 was 5.00 to 6.00.

Take `Cc1cc(C2CCOCC2)n2nc(NCc3c(F)cncc3F)nc2n1` [Example 70, N-[(3,5-Difluoropyridin-4-yl)methyl]-5-methyl-7-(oxan-4-yl)-[1,2,4]triazolo[1,5-a]pyrimidin-2-amine]: the pIC50 is 6.00 to 7.00.

Take `Cc1cc(C2CCC2)n2nc(NCc3cn(-c4ccccc4)nc3C)nc2n1` [Example 71, 7-Cyclobutyl-5-methyl-N-[(3-methyl-1-phenyl-1H-pyrazol-4-yl)methyl]-[1,2,4]triazolo[1,5-a]pyrimidin-2-amine]: the pIC50 is 6.00 to 7.00.

As for `Cc1cc(C2CCOC2)n2nc(NCc3cn(-c4ccccc4)nc3C)nc2n1` (stereo not shown) [Example 72, 5-Methyl-N-[(3-methyl-1-phenyl-1H-pyrazol-4-yl)methyl]-7-(oxolan-3-yl)-[1,2,4]triazolo[1,5-a]pyrimidin-2-amine], the “PDE2 (PIC50)” value is greater than 7.

As to `Cc1cc(C2CCOCC2)n2nc(NCc3cc(C#N)ccc3F)nc2n1` [Example 73, 4-Fluoro-3-({[5-methyl-7-(oxan-4-yl)-[1,2,4]triazolo[1,5-a]pyrimidin-2-yl]amino}methyl)benzonitrile], the pIC50 is 6.00 to 7.00.

With `Cc1cc(C(C)C)n2nc(NCc3cn(-c4ccccc4)nc3C)nc2n1` [Example 74, 5-Methyl-N-[(3-methyl-1-phenyl-H-pyrazol-4-yl)methyl]-7-(propan-2-yl)-[1,2,4]triazolo[1,5-a]pyrimidin-2-amine], the “PDE2 (PIC50)” value is greater than 7.

For the compound `COc1ccc(CNc2nc3nc(C)cc(C4(C)CC4)n3n2)cc1` [Example 75, N-[(4-Methoxyphenyl)methyl]-5-methyl-7-(1-methylcyclopropyl)-[1,2,4]triazolo[1,5-a]pyrimidin-2-amine], the pIC50 was 6.00 to 7.00.

As to `Cc1cc(C2(C)CC2)n2nc(NCc3cn(-c4ccccc4)nc3C)nc2n1` [Example 76, 5-Methyl-N-[(3-methyl-1-phenyl-1H-pyrazol-4-yl)methyl]-7-(1-methylcyclopropyl)-[1,2,4]triazolo[1,5-a]pyrimidin-2-amine], the “PDE2 (PIC50)” value was greater than 7.

On to `COc1ccc(CNc2nc3nc(C)cc(C(C)(C)OC)n3n2)cc1` [Example 77, N-[(4-Methoxyphenyl)methyl]-7-(2-methoxypropan-2-yl)-5-methyl-[1,2,4]triazolo[1,5-a]pyrimidin-2-amine], for which the pIC50 is 5.00 to 6.00.

Regarding `Cc1cc(C2CCOCC2)n2nc(NCc3ccc(F)c(Cl)c3F)nc2n1` [Example 78, N-[(3-Chloro-2,4-difluorophenyl)methyl]-5-methyl-7-(oxan-4-yl)-[1,2,4]triazolo[1,5-a]pyrimidin-2-amine], the “PDE2 (PIC50)” value is listed as greater than 7.

As for `Cc1cc(C2CCOCC2)n2nc(NCc3cc(Cl)c(F)cc3F)nc2n1` [Example 80, N-[(5-Chloro-2,4-difluorophenyl)methyl]-5-methyl-7-(oxan-4-yl)-[1,2,4]triazolo[1,5-a]pyrimidin-2-amine], the “PDE2 (PIC50)” value was greater than 7.

Take `Cc1cc(C2CCOCC2)n2nc(NCc3cc(F)cc(Br)c3)nc2n1` [Example 81, N-[(3-Bromo-5-fluorophenyl)methyl]-5-methyl-7-(oxan-4-yl)-[1,2,4]triazolo[1,5-a]pyrimidin-2-amine]: the “PDE2 (PIC50)” value is given as greater than 7.

For the compound `Cc1cc(C2CCOCC2)n2nc(NCc3cc(-c4ccccc4)nn3C)nc2n1` [Example 82, 5-Methyl-N-[(1-methyl-3-phenyl-1H-pyrazol-5-yl)methyl]-7-(oxan-4-yl)-[1,2,4]triazolo[1,5-a]pyrimidin-2-amine], the “PDE2 (PIC50)” value was greater than 7.

`Cc1cc(C2CCOCC2)n2nc(NCc3cccc(Br)c3F)nc2n1` [Example 83, N-[(3-Bromo-2-fluorophenyl)methyl]-5-methyl-7-(oxan-4-yl)-[1,2,4]triazolo[1,5-a]pyrimidin-2-amine]: the “PDE2 (PIC50)” value is given as greater than 7.

Take `Cc1cc(C2CCOCC2)n2nc(NCc3cc(F)cc(Cl)c3)nc2n1` [Example 84, N-[(3-Chloro-5-fluorophenyl)methyl]-5-methyl-7-(oxan-4-yl)-[1,2,4]triazolo[1,5-a]pyrimidin-2-amine]: the “PDE2 (PIC50)” value was greater than 7.

As to `Cc1cc(C2CCOCC2)n2nc(NCc3cc(C(F)(F)F)nn3C)nc2n1` [Example 85, 5-Methyl-N-{[1-methyl-3-(trifluoromethyl)-1H-pyrazol-5-yl]methyl}-7-(oxan-4-yl)-[1,2,4]triazolo[1,5-a]pyrimidin-2-amine], the “PDE2 (PIC50)” value is listed as greater than 7.

For the compound `Cc1cc(C2CCOCC2)n2nc(NCc3cccc(C#N)c3)nc2n1` [Example 86, 3-({[5-Methyl-7-(oxan-4-yl)-[1,2,4]triazolo[1,5-a]pyrimidin-2-yl]amino}methyl)benzonitrile], the pIC50 was 6.00 to 7.00.
